Reference: PubChem BioAssay AID2060623 (Molecular Pharmacology Branch, DTP, NCI, 2025)
pIC50: −log10 of the molar value.

System: 227483-062-R1-J1-PDC complex spheroids with HUVEC/MSC, viability
Test: Anticancer human tumor 227483-062-R1-J1-PDC patient-derived pancreatic carcinoma cell line growth inhibition [CLK]
Conditions: for pIC50: curve of first compound; for viability, T/C: stronger effect = lower value; active = viability on the fitted dose curve at most 10% of control; inactive = the rest
How it was run: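 Multi-cell-type spheroids combined patient-derived tumor cells with HUVEC endothelial cells and human mesenchymal stem cells. Paired agents were dosed in half-log steps down from about clinical Cmax, or from 10 microM where Cmax was unknown.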

[1] = second compound 0.0316 µM, first compound 0.0316 µM
[2] = second compound 0.0316 µM, first compound 0.1 µM
[3] = second compound 0.0316 µM, first compound 0.316 µM
[4] = second compound 0.0316 µM, first compound 1 µM
[5] = second compound 0.1 µM, first compound 0.0316 µM
[6] = second compound 0.1 µM, first compound 0.1 µM
[7] = second compound 0.1 µM, first compound 0.316 µM
[8] = second compound 0.1 µM, first compound 1 µM
[9] = second compound 0.316 µM, first compound 0.0316 µM
[10] = second compound 0.316 µM, first compound 0.1 µM
[11] = second compound 0.316 µM, first compound 0.316 µM
[12] = second compound 0.316 µM, first compound 1 µM
[13] = second compound 1 µM, first compound 0.0316 µM
[14] = second compound 1 µM, first compound 0.1 µM
[15] = second compound 1 µM, first compound 0.316 µM
[16] = second compound 1 µM, first compound 1 µM
[17] = second compound 3.16 µM, first compound 0.0316 µM
[18] = second compound 3.16 µM, first compound 0.1 µM
[19] = second compound 3.16 µM, first compound 0.316 µM
[20] = second compound 3.16 µM, first compound 1 µM
[21] = second compound 10 µM, first compound 0.0316 µM
[22] = second compound 10 µM, first compound 0.1 µM
[23] = second compound 10 µM, first compound 0.316 µM
[24] = second compound 10 µM, first compound 1 µM
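Also: spheroids exposed to compounds for seven days before readout.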
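For viability, T/C in this document: percent of DMSO vehicle control luminescence as 100% viability.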

C=CC(=O)Nc1cc(Nc2nccc(-c3cn(C)c4ccccc34)n2)c(OC)cc1N(C)CCN(C)C + CN1CCN(c2cc(C(=O)Nc3cc4cc(-c5cnn(C)c5)ccc4cn3)ccn2)CC1
< 6.52: pIC50 (second compound 0.0316 µM) | pIC50 (second compound 0.1 µM)
inactive: viability, T/C (second compound 0.0316 µM, first compound 0.000949 µM) 101% | viability, T/C (second compound 0.0316 µM, first compound 0.003 µM) 104% | viability, T/C (second compound 0.0316 µM, first compound 0.00949 µM) 117% | viability, T/C (second compound 0.0316 µM, first compound 0.03 µM) 99.1% | viability, T/C (second compound 0.0316 µM, first compound 0.0949 µM) 87.5% | viability, T/C (second compound 0.0316 µM, first compound 0.3 µM) 79.2% | viability, T/C (second compound 0.1 µM, first compound 0.000949 µM) 71.5% | viability, T/C (second compound 0.1 µM, first compound 0.003 µM) 64.6% | viability, T/C (second compound 0.1 µM, first compound 0.00949 µM) 61.5% | viability, T/C (second compound 0.1 µM, first compound 0.03 µM) 77% | viability, T/C (second compound 0.1 µM, first compound 0.0949 µM) 68% | viability, T/C (second compound 0.1 µM, first compound 0.3 µM) 56%
> 9.02: pIC50 (second compound 0.316 µM) | pIC50 (second compound 1 µM) | pIC50 (second compound 3.16 µM) | pIC50 (second compound 10 µM)
active: viability, T/C (second compound 0.316 µM, first compound 0.000949 µM) 4.77% | viability, T/C (second compound 0.316 µM, first compound 0.003 µM) 5.57% | viability, T/C (second compound 0.316 µM, first compound 0.00949 µM) 5.48% | viability, T/C (second compound 0.316 µM, first compound 0.03 µM) 5.73% | viability, T/C (second compound 0.316 µM, first compound 0.0949 µM) 8.02% | viability, T/C (second compound 0.316 µM, first compound 0.3 µM) 4.25% | viability, T/C (second compound 1 µM, first compound 0.000949 µM) 3.69% | viability, T/C (second compound 1 µM, first compound 0.003 µM) 1.6% | viability, T/C (second compound 1 µM, first compound 0.00949 µM) 2.26% | viability, T/C (second compound 1 µM, first compound 0.03 µM) 4.39% | viability, T/C (second compound 1 µM, first compound 0.0949 µM) 2.66% | viability, T/C (second compound 1 µM, first compound 0.3 µM) 1.57% | viability, T/C (second compound 3.16 µM, first compound 0.000949 µM) 3.65% | viability, T/C (second compound 3.16 µM, first compound 0.003 µM) 4.21% | viability, T/C (second compound 3.16 µM, first compound 0.00949 µM) 3% | viability, T/C (second compound 3.16 µM, first compound 0.03 µM) 7.42% | viability, T/C (second compound 3.16 µM, first compound 0.0949 µM) 2.8% | viability, T/C (second compound 3.16 µM, first compound 0.3 µM) 5.59% | viability, T/C (second compound 10 µM, first compound 0.000949 µM) 3.23% | viability, T/C (second compound 10 µM, first compound 0.003 µM) 6.58% | viability, T/C (second compound 10 µM, first compound 0.00949 µM) 2.57% | viability, T/C (second compound 10 µM, first compound 0.03 µM) 4.96% | viability, T/C (second compound 10 µM, first compound 0.0949 µM) 2.09% | viability, T/C (second compound 10 µM, first compound 0.3 µM) 1.83%

CCN1CCN(Cc2ccc(Nc3ncc(F)c(-c4cc(F)c5nc(C)n(C(C)C)c5c4)n3)nc2)CC1 + CN1CCN(c2cc(C(=O)Nc3cc4cc(-c5cnn(C)c5)ccc4cn3)ccn2)CC1
active: viability, T/C (second compound 0.316 µM, first compound 0.00316 µM) 6.05% | viability, T/C (second compound 0.316 µM, first compound 0.01 µM) 8.49% | viability, T/C [9] 8.54% | viability, T/C [10] 9.66% | viability, T/C [11] 13% | viability, T/C [12] 6.42% | viability, T/C (second compound 1 µM, first compound 0.00316 µM) 1.57% | viability, T/C (second compound 1 µM, first compound 0.01 µM) 2.07% | viability, T/C [13] 2.83% | viability, T/C [14] 2.75% | viability, T/C [15] 4.4% | viability, T/C [16] 5.61% | viability, T/C (second compound 3.16 µM, first compound 0.00316 µM) 3.72% | viability, T/C (second compound 3.16 µM, first compound 0.01 µM) 6.23% | viability, T/C [17] 5.4% | viability, T/C [18] 5.18% | viability, T/C [19] 4.88% | viability, T/C [20] 8.09% | viability, T/C (second compound 10 µM, first compound 0.00316 µM) 3.9% | viability, T/C (second compound 10 µM, first compound 0.01 µM) 2.79% | viability, T/C [21] 4.22% | viability, T/C [22] 4.63% | viability, T/C [23] 2.76% | viability, T/C [24] 2.39%
< 6.00: pIC50 (second compound 0.0316 µM) | pIC50 (second compound 0.1 µM)
> 8.50: pIC50 (second compound 0.316 µM) | pIC50 (second compound 1 µM) | pIC50 (second compound 3.16 µM) | pIC50 (second compound 10 µM)
inactive: viability, T/C (second compound 0.0316 µM, first compound 0.00316 µM) 97.5% | viability, T/C (second compound 0.0316 µM, first compound 0.01 µM) 93.4% | viability, T/C [1] 101% | viability, T/C [2] 93.4% | viability, T/C [3] 87.6% | viability, T/C [4] 72.4% | viability, T/C (second compound 0.1 µM, first compound 0.00316 µM) 65.8% | viability, T/C (second compound 0.1 µM, first compound 0.01 µM) 64.7% | viability, T/C [5] 64.5% | viability, T/C [6] 72.9% | viability, T/C [7] 72.6% | viability, T/C [8] 52%

Nc1ccccc1NC(=O)c1ccc(CNC(=O)OCc2cccnc2)cc1 + CN1CCN(c2cc(C(=O)Nc3cc4cc(-c5cnn(C)c5)ccc4cn3)ccn2)CC1
active: viability, T/C [9] 4.44% | viability, T/C [10] 6.25% | viability, T/C [11] 7.44% | viability, T/C [12] 3.95% | viability, T/C (second compound 0.316 µM, first compound 3.16 µM) 1.6% | viability, T/C (second compound 0.316 µM, first compound 10 µM) 1.34% | viability, T/C [13] 2.7% | viability, T/C [14] 1.53% | viability, T/C [15] 1.99% | viability, T/C [16] 2.47% | viability, T/C (second compound 1 µM, first compound 3.16 µM) 1.45% | viability, T/C (second compound 1 µM, first compound 10 µM) 1.58% | viability, T/C [17] 3.26% | viability, T/C [18] 4.66% | viability, T/C [19] 2.26% | viability, T/C [20] 2.68% | viability, T/C (second compound 3.16 µM, first compound 3.16 µM) 2.71% | viability, T/C (second compound 3.16 µM, first compound 10 µM) 2.41% | viability, T/C [21] 3.24% | viability, T/C [22] 1.86% | viability, T/C [23] 2.94% | viability, T/C [24] 2.31% | viability, T/C (second compound 10 µM, first compound 3.16 µM) 2.71% | viability, T/C (second compound 10 µM, first compound 10 µM) 1.85%
> 7.50: pIC50 (second compound 0.316 µM) | pIC50 (second compound 1 µM) | pIC50 (second compound 3.16 µM) | pIC50 (second compound 10 µM)
inactive: viability, T/C [1] 106% | viability, T/C [2] 108% | viability, T/C [3] 107% | viability, T/C [4] 126% | viability, T/C (second compound 0.0316 µM, first compound 3.16 µM) 131% | viability, T/C (second compound 0.0316 µM, first compound 10 µM) 51.6% | viability, T/C [5] 63.7% | viability, T/C [6] 76% | viability, T/C [7] 57.4% | viability, T/C [8] 48.6% | viability, T/C (second compound 0.1 µM, first compound 3.16 µM) 36.9% | viability, T/C (second compound 0.1 µM, first compound 10 µM) 17.1%
< 5.00: pIC50 (second compound 0.0316 µM)
5.98: pIC50 (second compound 0.1 µM)
